The values that follow come from patent US20260274892A1, “MACROCYCLIC BROAD SPECTRUM ANTIBIOTICS” (RQx Pharmaceuticals, Inc., priority 2017, published 2026).

Test [1] relates to Escherichia coli ATCC 25922. Description: Minimum inhibitory concentration (MIC), CLSI broth micro-dilution, E. coli. Format: cell-based. Particulars: Escherichia coli. The procedure, abridged:
(§1)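 Colonies grown 20 h at 35° C on Trypticase Soy agar (MRSA) or Luria agar (E. coli) were suspended in cation-adjusted Mueller Hinton broth with 0.002% Tween-80. Suspensions were added at OD600 0.0005 to 10-point twofold compound dilutions, then incubated 22 h at 35° C.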
(In general: Broth dilution looks for growth in wells or tubes with falling amounts of substance.)

Test [2] concerns Methicillin Resistant Staphylococcus aureus strain USA 200. Description: Minimum inhibitory concentration (MIC), CLSI broth micro-dilution, S. aureus. It counts as cell-based. Particulars: Staphylococcus aureus, MRSA / USA200; Table 6; MRSA USA 200; cation adjusted Mueller Hinton Broth + 0.002% Tween-80; 35° C., 22 hours. In short, it runs like this:
as §1

Setting [3] is: ATCC25922, 22 h, Table 6, cation adjusted Mueller Hinton Broth + 0.002% Tween-80, 35° C.

As for `Cc1nc(-c2ccc(N3CCCCCC3)cc2)nc(C)c1C(=O)N[C@@H](CCN)C(=O)N(C)[C@@H]1C(=O)N[C@@H](C)C(=O)N[C@H](C(=O)NCC#N)Cc2ccc(OCCN)c(c2)-c2cc1ccc2OCCN` (racemic) [Compound 325, rac-(8S,11S,14S)-3,18-bis(2-aminoethoxy)-N-(cyanomethyl)-11-methyl-14-[methyl-[rac-(2S)-4-amino-2-[[2-[4-(azepan-1-yl)phenyl]-4,6-dimethyl-pyrimidine-5-carbonyl]amino]butanoyl]amino]-10,13-dioxo-9,12-diazatricyclo[13.3.1.12,6]icosa-1(18),2(20),3,5,15(19),16-hexaene-8-carboxamide], the minimal inhibitory concentration (MIC) in test [1] (setting [3]) was 0.13 µM; in test [2], 0.016 µM.
The like results for `Cc1nc(-c2ccc(N3CCCCCCC3)cc2)nc(C)c1C(=O)N[C@@H](CCN)C(=O)N(C)[C@@H]1C(=O)N[C@@H](C)C(=O)N[C@H](C(=O)NCC#N)Cc2ccc(OCCN)c(c2)-c2cc1ccc2OCCN` (racemic) [Compound 326, rac-(8S,11S,14S)-3,18-bis(2-aminoethoxy)-N-(cyanomethyl)-11-methyl-14-[methyl-[rac-(2S)-4-amino-2-[[2-[4-(azocan-1-yl)phenyl]-4,6-dimethyl-pyrimidine-5-carbonyl]amino]butanoyl]amino]-10,13-dioxo-9,12-diazatricyclo[13.3.1.12,6]icosa-1(18),2(20),3,5,15(19),16-hexaene-8-carboxamide] were, in that order, 0.13 µM and 0.031 µM.
On the same counts, the results for `CCCCCOc1ccc(-c2nc(C)c(C(=O)N[C@@H](CCN)C(=O)N(C)[C@@H]3C(=O)N[C@@H](C)C(=O)N[C@H](C(=O)NCC#N)Cc4ccc(OCCN)c(c4)-c4cc3ccc4OCCN)c(C)n2)cc1` (racemic) [Compound 328, rac-(8S,11S,14S)-3,18-bis(2-aminoethoxy)-N-(cyanomethyl)-11-methyl-14-[methyl-[rac-(2S)-4-amino-2-[[4,6-dimethyl-2-(4-pentoxyphenyl)pyrimidine-5-carbonyl]amino]butanoyl]amino]-10,13-dioxo-9,12-diazatricyclo[13.3.1.12,6]icosa-1(18),2(20),3,5,15(19),16-hexaene-8-carboxamide] are 0.07 µM and 0.0093 µM.
For `Cc1nc(-c2ccc(OCCC(C)C)cc2)nc(C)c1C(=O)N[C@@H](CCN)C(=O)N(C)[C@@H]1C(=O)N[C@@H](C)C(=O)N[C@H](C(=O)NCC#N)Cc2ccc(OCCN)c(c2)-c2cc1ccc2OCCN` (racemic) [Compound 329, rac-(8S,11S,14S)-3,18-bis(2-aminoethoxy)-N-(cyanomethyl)-11-methyl-14-[methyl-[rac-(2S)-4-amino-2-[[2-(4-isopentyloxyphenyl)-4,6-dimethyl-pyrimidine-5-carbonyl]amino]butanoyl]amino]-10,13-dioxo-9,12-diazatricyclo[13.3.1.12,6]icosa-1(18),2(20),3,5,15(19),16-hexaene-8-carboxamide], the MIC in test [1] (setting [3]) was 0.11 µM; in test [2] it was 0.011 µM.
On the same counts, the results for `CCCOc1ccc(-c2nc(C)c(C(=O)N[C@@H](CCN)C(=O)N(C)[C@@H]3C(=O)N[C@@H](C)C(=O)N[C@H](C(=O)NCC#N)Cc4ccc(OCCN)c(c4)-c4cc3ccc4OCCN)c(C)n2)cc1` (racemic) [Compound 330, rac-(8S,11S,14S)-3,18-bis(2-aminoethoxy)-N-(cyanomethyl)-11-methyl-14-[methyl-[rac-(2S)-4-amino-2-[[4,6-dimethyl-2-(4-propoxyphenyl)pyrimidine-5-carbonyl]amino]butanoyl]amino]-10,13-dioxo-9,12-diazatricyclo[13.3.1.12,6]icosa-1(18),2(20),3,5,15(19),16-hexaene-8-carboxamide] are 0.26 µM and 0.033 µM.
The like results for `CCCCOc1ccc(-c2nc(C)c(C(=O)N[C@@H](CCN)C(=O)N(C)[C@@H]3C(=O)N[C@@H](C)C(=O)N[C@H](C(=O)NCC#N)Cc4ccc(OCCN)c(c4)-c4cc3ccc4OCCN)c(C)n2)cc1` (racemic) [Compound 331, rac-(8S,11S,14S)-3,18-bis(2-aminoethoxy)-N-(cyanomethyl)-11-methyl-14-[methyl-[rac-(2S)-4-amino-2-[[2-(4-butoxyphenyl)-4,6-dimethyl-pyrimidine-5-carbonyl]amino]butanoyl]amino]-10,13-dioxo-9,12-diazatricyclo[13.3.1.12,6]icosa-1(18),2(20),3,5,15(19),16-hexaene-8-carboxamide] were, in that order, 0.13 µM and 0.0081 µM.
On the same counts, the results for `CCCCCCOc1ccc(-c2nc(C)c(C(=O)N[C@@H](CCN)C(=O)N(C)[C@@H]3C(=O)N[C@@H](C)C(=O)N[C@H](C(=O)NCC#N)Cc4ccc(OCCN)c(c4)-c4cc3ccc4OCCN)c(C)n2)cc1` (racemic) [Compound 332, rac-(8S,11S,14S)-3,18-bis(2-aminoethoxy)-N-(cyanomethyl)-11-methyl-14-[methyl-[rac-(2S)-4-amino-2-[[2-(4-hexoxyphenyl)-4,6-dimethyl-pyrimidine-5-carbonyl]amino]butanoyl]amino]-10,13-dioxo-9,12-diazatricyclo[13.3.1.12,6]icosa-1(18),2(20),3,5,15(19),16-hexaene-8-carboxamide] are 0.063 µM and 0.0078 µM.
On to `COCCOc1ccc(-c2nc(C)c(C(=O)N[C@@H](CCN)C(=O)N(C)[C@@H]3C(=O)N[C@@H](C)C(=O)N[C@H](C(=O)NCC#N)Cc4ccc(OCCN)c(c4)-c4cc3ccc4OCCN)c(C)n2)cc1` (racemic) [Compound 333, rac-(8S,11S,14S)-3,18-bis(2-aminoethoxy)-N-(cyanomethyl)-11-methyl-14-[methyl-[rac-(2S)-4-amino-2-[[2-[4-(2-methoxyethoxy)phenyl]-4,6-dimethyl-pyrimidine-5-carbonyl]amino]butanoyl]amino]-10,13-dioxo-9,12-diazatricyclo[13.3.1.12,6]icosa-1(18),2(20),3,5,15(19),16-hexaene-8-carboxamide], for which the minimal inhibitory concentration (MIC) was found to be 2 µM in test [1] (ATCC25922, Table 6, cation adjusted Mueller Hinton Broth + 0.002% Tween-80, 35° C., 22 hours) and 1 µM in test [2].
In the case of `Cc1nc(-c2ccc3c(c2)OCCO3)nc(C)c1C(=O)N[C@@H](CCN)C(=O)N(C)[C@@H]1C(=O)N[C@@H](C)C(=O)N[C@H](C(=O)NCC#N)Cc2ccc(OCCN)c(c2)-c2cc1ccc2OCCN` (racemic) [Compound 334, rac-(8S,11S,14S)-3,18-bis(2-aminoethoxy)-N-(cyanomethyl)-11-methyl-14-[methyl-[rac-(2S)-4-amino-2-[[2-(2,3-dihydro-1,4-benzodioxin-6-yl)-4,6-dimethyl-pyrimidine-5-carbonyl]amino]butanoyl]amino]-10,13-dioxo-9,12-diazatricyclo[13.3.1.12,6]icosa-1(18),2(20),3,5,15(19),16-hexaene-8-carboxamide], the MIC in test [1] (setting [3]) came out at 4 µM; in test [2] it was 0.5 µM.
The like results for `Cc1nc(-c2ccc(OC3CCCC3)cc2)nc(C)c1C(=O)N[C@@H](CCN)C(=O)N(C)[C@@H]1C(=O)N[C@@H](C)C(=O)N[C@H](C(=O)NCC#N)Cc2ccc(OCCN)c(c2)-c2cc1ccc2OCCN` (racemic) [Compound 336, rac-(8S,11S,14S)-3,18-bis(2-aminoethoxy)-N-(cyanomethyl)-11-methyl-14-[methyl-[rac-(2S)-4-amino-2-[[2-[4-(cyclopentoxy)phenyl]-4,6-dimethyl-pyrimidine-5-carbonyl]amino]butanoyl]amino]-10,13-dioxo-9,12-diazatricyclo[13.3.1.12,6]icosa-1(18),2(20),3,5,15(19),16-hexaene-8-carboxamide] were, in that order, 0.15 µM and 0.016 µM.

What is called MIC is the smallest concentration in the dilution series that meets the test's criterion for growth inhibition.
